Data on one compound can be found in paper PMC5939083 (Proceedings of the National Academy of Sciences of the …, 2018).

Each structure is given as a SMILES string.

For this test, the target named is T1, CYP9K1 (Anopheles gambiae, UniProt Q8T633).
T1 sequence (Q8T633 1-531): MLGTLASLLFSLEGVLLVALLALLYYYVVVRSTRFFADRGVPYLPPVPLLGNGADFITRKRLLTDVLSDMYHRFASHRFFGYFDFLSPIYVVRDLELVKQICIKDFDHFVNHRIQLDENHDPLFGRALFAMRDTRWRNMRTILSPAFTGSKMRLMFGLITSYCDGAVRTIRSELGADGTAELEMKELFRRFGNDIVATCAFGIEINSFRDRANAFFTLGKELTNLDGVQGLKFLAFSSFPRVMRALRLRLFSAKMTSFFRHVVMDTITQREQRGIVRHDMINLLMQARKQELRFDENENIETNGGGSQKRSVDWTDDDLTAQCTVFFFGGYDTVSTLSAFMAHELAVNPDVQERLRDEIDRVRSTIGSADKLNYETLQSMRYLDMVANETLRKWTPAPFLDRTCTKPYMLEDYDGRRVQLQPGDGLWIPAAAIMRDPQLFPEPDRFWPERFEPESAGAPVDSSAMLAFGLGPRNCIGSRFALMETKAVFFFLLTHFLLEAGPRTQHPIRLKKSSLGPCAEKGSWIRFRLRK
T1 sequence (Q86QH5 1-679 partner): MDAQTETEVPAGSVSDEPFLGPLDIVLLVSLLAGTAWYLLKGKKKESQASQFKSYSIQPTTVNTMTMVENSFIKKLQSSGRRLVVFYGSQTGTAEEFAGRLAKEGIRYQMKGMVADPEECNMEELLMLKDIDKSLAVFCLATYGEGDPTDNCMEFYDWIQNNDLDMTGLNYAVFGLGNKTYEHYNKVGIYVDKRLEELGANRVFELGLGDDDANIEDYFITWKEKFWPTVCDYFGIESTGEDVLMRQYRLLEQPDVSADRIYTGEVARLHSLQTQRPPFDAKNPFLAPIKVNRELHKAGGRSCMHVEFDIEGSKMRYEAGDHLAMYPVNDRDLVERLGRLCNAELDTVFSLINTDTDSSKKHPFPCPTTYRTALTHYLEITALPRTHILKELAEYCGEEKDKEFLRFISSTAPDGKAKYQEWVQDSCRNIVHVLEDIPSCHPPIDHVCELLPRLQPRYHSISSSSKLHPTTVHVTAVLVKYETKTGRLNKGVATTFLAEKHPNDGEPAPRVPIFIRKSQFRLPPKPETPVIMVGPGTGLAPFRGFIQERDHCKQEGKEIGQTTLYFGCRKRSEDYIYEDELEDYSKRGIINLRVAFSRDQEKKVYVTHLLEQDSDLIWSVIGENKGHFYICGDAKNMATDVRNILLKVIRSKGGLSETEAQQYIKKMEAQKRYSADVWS
T1 sequence (Q86QH4 1-128 partner): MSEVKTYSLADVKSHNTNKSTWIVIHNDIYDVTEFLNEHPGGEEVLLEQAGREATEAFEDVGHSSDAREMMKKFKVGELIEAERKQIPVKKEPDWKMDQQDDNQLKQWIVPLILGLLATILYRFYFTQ
Put plainly: HPLC substrate depletion, Michaelis-Menten fit. The conditions noted are these: NADPH generating system; AgCPR, AgCytb5; Tris-HCl 0.2 M pH 7.4, 0.25 mM MgCl2, 30 °C; 0.5-150 μM deltamethrin. It counts as biochemical.

What is called Km is the concentration of substrate that gives half-maximal velocity.

In the case of `CC1(C)[C@H](C(=O)O[C@H](C#N)c2cccc(Oc3ccccc3)c2)[C@@H]1C=C(Br)Br` [deltamethrin], the Km is 28.2 µM.
